Assay results taken from the supplement of paper PMC10307832.

Assays:
Assay in all cases: relative viability (nuclei count vs DMSO), 5 days (fraction); higher = more cells survive
Dovitinib + OSI-027 = compound: CN1CCN(c2ccc3nc(-c4c(N)c5c(F)cccc5[nH]c4=O)[nH]c3c2)CC1 [Dovitinib] + COc1cccc2cc(-c3nc([C@H]4CC[C@H](C(=O)O)CC4)n4ncnc(N)c34)[nH]c12 [OSI-027] (partner 0.5 µM)
How it was run: (§1)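 Relative viability divides the nuclei count in treated wells by that in vehicle wells. Lung cancer cell lines were seeded in 1536-well plates, dosed by pin tool the next day, and fixed and stained after 5 days in one step with final 0.05% Triton X-100, 1% formaldehyde and 1 ug/ml Hoechst. Dosing was a single drug or a fixed anchor-drug dose plus five library-drug doses (not always all listed) in √10 steps, and values are medians of duplicate plates imaged at 4×.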

Dovitinib + Lapatinib = compound: CN1CCN(c2ccc3nc(-c4c(N)c5c(F)cccc5[nH]c4=O)[nH]c3c2)CC1 [Dovitinib] + CS(=O)(=O)CCNCc1ccc(-c2ccc3ncnc(Nc4ccc(OCc5cccc(F)c5)c(Cl)c4)c3c2)o1 [Lapatinib] (partner 2 µM)
How it was run: as §1

Dovitinib + Linsitinib = compound: CN1CCN(c2ccc3nc(-c4c(N)c5c(F)cccc5[nH]c4=O)[nH]c3c2)CC1 [Dovitinib] + C[C@]1(O)C[C@@H](c2nc(-c3ccc4ccc(-c5ccccc5)nc4c3)c3c(N)nccn32)C1 [Linsitinib] (partner 1 µM)
How it was run: as §1

Dovitinib + Alpelisib = compound: CN1CCN(c2ccc3nc(-c4c(N)c5c(F)cccc5[nH]c4=O)[nH]c3c2)CC1 [Dovitinib] + Cc1nc(NC(=O)N2CCC[C@H]2C(N)=O)sc1-c1ccnc(C(C)(C)C(F)(F)F)c1 [Alpelisib] (partner 2 µM)
How it was run: as §1

Cell Line	relative viability (Dovitinib + OSI-027; first compound 0.02 µM)	relative viability (Dovitinib + OSI-027; first compound 0.06325 µM)	relative viability (Dovitinib + OSI-027; first compound 0.2 µM)	relative viability (Dovitinib + OSI-027; first compound 0.6325 µM)	relative viability (Dovitinib + OSI-027; first compound 2 µM)	relative viability (Dovitinib + Lapatinib; first compound 0.02 µM)	relative viability (Dovitinib + Lapatinib; first compound 0.06325 µM)	relative viability (Dovitinib + Lapatinib; first compound 0.2 µM)	relative viability (Dovitinib + Lapatinib; first compound 0.6325 µM)	relative viability (Dovitinib + Lapatinib; first compound 2 µM)	relative viability (Dovitinib + Linsitinib; first compound 0.02 µM)	relative viability (Dovitinib + Linsitinib; first compound 0.06325 µM)	relative viability (Dovitinib + Linsitinib; first compound 0.2 µM)	relative viability (Dovitinib + Linsitinib; first compound 0.6325 µM)	relative viability (Dovitinib + Linsitinib; first compound 2 µM)	relative viability (Dovitinib + Alpelisib; first compound 0.02 µM)	relative viability (Dovitinib + Alpelisib; first compound 0.06325 µM)	relative viability (Dovitinib + Alpelisib; first compound 0.2 µM)	relative viability (Dovitinib + Alpelisib; first compound 0.6325 µM)	relative viability (Dovitinib + Alpelisib; first compound 2 µM)
NCI-H2405	0.627	0.594	0.591	0.656	0.692	1.1	0.946	1.04	1.09	1.35	0.954	0.873	0.971	0.873	1.05	0.819	0.744	0.791	0.77	0.965
NCI-H3122	1.02	0.959	1	0.876	0.915	0.996	1.01	0.967	1.05	1.02	1	0.95	1.07	1.1	0.991	0.703	0.681	0.8	0.82	0.839
PC-3 [JPC-3]	0.86	0.767	0.8	0.732	0.779	0.483	0.398	0.466	0.488	0.47	0.923	0.907	0.983	0.99	0.967	1.03	1.01	1.02	1.09	0.909
PC-14	0.827	0.804	1.02	0.751	0.933	0.296	0.336	0.308	0.309	0.279	1.03	0.954	0.969	0.996	0.928	0.805	1.03	0.966	0.946	0.883
RERF-LC-KJ	0.639	0.623	0.653	0.56	0.574	0.94	0.884	0.853	0.909	0.825	0.89	0.934	0.938	0.838	0.842	0.794	0.825	0.852	0.822	0.87
SK-LU-1	0.3	0.386	0.359	0.388	0.316	0.735	0.927	0.875	0.814	0.823	1.1	0.999	0.966	1.07	1.06	0.928	0.946	0.951	0.805	1.16
SK-MES-1	0.56	0.591	0.605	0.601	0.612	0.438	0.47	0.482	0.524	0.437	1.09	1.02	1.09	1.15	1.07	0.852	0.89	0.907	0.936	0.971
SW 1573	0.715	0.641	0.676	0.455	0.725	1.18	1.06	1.05	1.17	1.16	0.798	0.795	0.749	0.766	0.864	0.785	0.798	0.703	0.657	0.753
UMC-11	0.467	0.39	0.523	0.47	0.497	1.04	1.01	0.96	0.963	0.724	0.983	1.1	0.986	1.07	1.07	0.958	0.941	0.892	0.82	0.961
